# Assays:
# [1] = Tasting in Maggi beef bouillon; details: Maggi beef bouillon 1 tablet in 500 ml of hot water
# Description: (§1) Samples were prepared and evaluated by expert tasters. Tasters were asked to describe the samples focusing on authentic taste, mouthfeel, fullness, salty-ness, salivation, umami, sweetness, juiciness, richness, long lastingness and fattiness.
# Comparison in Beef Bouillon
# Base is Maggi beef bouillon 1 tablet in 500 ml of hot water
# (§2) Samples were evaluated by expert tasters. Tasters were asked to describe the samples focusing on authentic taste, mouthfeel, fullness, salty-ness, salivation, umami, sweetness, juiciness, richness, long lastingness and fattiness.
# (§3) Samples were evaluated by expert tasters. Tasters were asked to describe the samples focusing on authentic taste, mouthfeel, fullness, salivation, salty-ness, umami, sweetness, juiciness, richness, long lastingness and fattiness.
# (§4) Samples were evaluated by expert tasters. Tasters were asked to describe the samples focusing on authentic taste, mouthfeel, fullness, salty-ness, salivation, umami, sweetness, juiciness, richness, long lastingness and fattiness
# (§5) Samples were evaluated by expert tasters. Tasters were asked to describe the samples focusing on authentic taste, mouth feel, fullness, salivation, salty-ness, umami, sweetness, juiciness, richness, long lastingness and fattiness
# [2] = Tasting in mango juice drink, 1% clear mango juice; details: 8% sucrose, 0.1% citric acid, mango flavour 0.05%
# Description: Comparison in a Mango Juice Drink
# Base is 8% sucrose, 0.1% citric acid, 1% clear mango juice, and a proprietary mango flavour at 0.05%.
# as §2
# Base is water, 8% sucrose, 0.1% citric acid, 1% clear mango juice, proprietary mango flavour @ 0.05%
# as §3
# Base is water, 8% sucrose, 0.1% citric acid, 1% clear mango juice, proprietary mango flavour @0.05%
# as §4
# Base is 8% sucrose, 0.1% citric acid, 1% clear mango juice, proprietary mango flavour @ 0.05%
# as §5
# Base is water, 8% sucrose, 0.1% citric acid, 1% clear mango juice, proprietary mango flavour @ 0.05%.
# Test in a Mango Juice Drink
# [3] = Tasting in chicken bouillon; details: 0.7% salt, 0.5% fat
# Description: (§6) The following formulations were prepared and tasted by trained panelists.
# Standard Chicken bouillon base, 0.7% salt, 0.5% fat
# Samples were prepared and evaluated by expert tasters. Tasters were asked to describe the samples focusing on authentic taste, mouthfeel, fullness, salivation, salty-ness, umami, sweetness, juiciness, richness, long lastingness and fattiness.
# Test in Soups and Bouillons
# Standard Chicken Bouillon Base
# [4] = Test in peach flavoured drink; details: 1 ppm; water, 8% sugar, 0.1% citric acid, peach flavour 0.05%
# Description: as §1
# Test in Peach Flavoured Drink:
# Base is water, 8% sugar, 0.1% citric acid, and proprietary peach flavour at 0.05%
# as §2
# Comparison in a Peach Drink
# Base is water, 8% sugar, 0.1% citric acid, proprietary peach flavour at 0.05%
# as §3
# [5] = Test in chocolate flavoured drink; details: 0.5 ppm; water, 4% sucrose, chocolate flavour 0.03%
# Description: as §1
# Test in Chocolate Flavoured Drink:
# Base: Water, 4% sucrose, proprietary chocolate flavor at 0.03%
# as §2
# Test in Chocolate Flavoured Drink Flavoured
# Base: Water, 4% sucrose, proprietary chocolate flavour @ 0.03%
# [6] = Tasting in vanilla milk 0.15% fat; details: 1 ppm, 4% sucrose, Vaniline 10 ppm + vanilla extract 0.03%
# Description: as §1
# Base: Milk 0.15% fat, sweetened with 4% sucrose by weight, flavoured with proprietary
# Vaniline flavour @ 10 ppm+Vanilla ext. @ 0.03%
# as §2
# Comparison in a Vanilla Milk Drink
# Vaniline @ 10 ppm+Vanilla extract @ 0.03%
# Base: Milk 0.15% fat, sweetened with 4% sucrose by weight, flavoured with proprietary Vaniline @ 10 ppm+Vanilla extract @ 0.03%
# [7] = Test in pear flavoured drink; details: 0.5 ppm; water, 7% sugar, 0.1% citric acid, pear flavour 0.025%
# Description: as §1
# Test in Pear Flavoured Drink:
# Base: water, 7% sugar, 0.1% citric acid, proprietary pear flavour at 0.025%
# as §2
# Comparison in a Pear Drink
# Base is water, 8% sugar, 0.1% citric acid, proprietary pear flavour at 0.025%
# [8] = Test in orange beverage; details: 1 ppm; water, 7% sugar (8% sucrose elsewhere in the source), 0.1% citric acid, orange flavour 0.06%
# Description: as §2
# Base is water, 7% sugar, 0.1% citric acid, proprietary orange flavour @ 0.06%.
# as §4
# Base is water, 7% sugar, 0.1% citric acid, proprietary orange flavour @ 0.06%
# as §5
# Samples were evaluated by expert tasters. Tasters were asked to describe the samples focusing on authentic taste, mouthfeel, fullness, salivation, sweetness, juiciness, richness, long lastingness and fattiness
# Comparison in an Orange Drink
# Base: water, 8% sucrose, 0.1% citric acid, proprietary orange flavour @ 0.06%.
# [9] = Tasting in beef bouillon base; details: 0.5 PPM in beef bouillon base 1.0% salt, 0.5% fat
# Description: as §6
# Beef Bouillon base 1.0% salt, 0.5% fat
# [10] = Tasting in strawberry drink; details: 7% sucrose, 0.1% citric acid, strawberry flavour 0.015%
# Description: as §1
# Comparison in a Strawberry Drink
# Base is 7% sucrose, 0.1% citric acid, and a proprietary strawberry flavour @ 0.015%
# as §2
# Base is water, 7% sucrose, 0.1% citric acid, proprietary strawberry flavour @ 0.015%
# as §3
# Test in a Strawberry Drink
# Base is 7% sucrose, 0.1% citric acid, proprietary strawberry flavour @ 0.015%
# [11] = Tasting in strawberry flavoured sugar sweetened yoghurt; details: 2 ppm, 1.5% fat yoghurt, 8% sucrose, strawberry flavour 0.015%
# Description: Strawberry Flavoured Sugar Sweetened Yoghurt
# In a 1.5% fat yoghurt base, sweetened with 8% sucrose by weight, flavoured with a proprietary strawberry flavour @ 0.015% several different N-acyl aminoacids were added.
# as §1
# Test in a Strawberry Yoghurt
# Base: Yoghurt 1.5% fat yoghurt, 8% sucrose, proprietary strawberry flavour @ 0.015%
# as §3
# [12] = 0.2 PPM in chicken bouillon base
smiles,measurement,setting,value
"CCCCCCCCCCCCCCCCCC(=O)N[C@@H](CO)C(=O)O [C18:0-ser, N-stearoyl-Ser]",tasting result,[1]; 1 ppm,"more salty, richer, more umami"
same,tasting result,[2]; 1 ppm,"nice sweet, pineapple, long lasting"
"CCCCC/C=C\C/C=C\CCCCCCCC(=O)NC1(C(=O)O)CC1 [C18:2 ACCA, N-linoleoyl 1-amino-cyclopropyl carboxylic acid]",tasting result,[3]; [12],"Creamy, full body, more fatty chicken"
CCCCC/C=C\C/C=C\CCCCCCCC(=O)NCCC(=O)O [C18:2-beta ala],tasting result,[1]; 2 ppm,"salty, savoury, full"
same,tasting result,[2]; 2 ppm,"full long lasting nice juicy, almost a bit salty"
"CCCCCCCCCCCCCCCC(=O)NC(CCC(=O)O)C(=O)O (centres unmarked) [C16:0-glu, N-palmitoyl-Glu]",tasting result,[4],"fruity, nice juicy, sweet, soft peach skin"
same,tasting result,[5],"sweet, fatty cocoa, sulphur is enhanced, enhanced nib note"
same,tasting result,[6],"ice cream like, sweet, very full"
same,tasting result,[7],fatty long lasting
same,tasting result,[2]; 1 ppm,slightly more juicy impact
"CCCCCCCCCCCCCCCC(=O)N1CCCC1C(=O)O (centres unmarked) [C16:0-pro, N-palmitoyl-Pro]",tasting result,[1]; 1 ppm,"more salty, full, darker, more meat-like"
same,tasting result,[2]; 1 ppm,"overripe, orange like, long lasting after taste"
"CCCCCCCCCC(=O)NC1(C(=O)O)CC1 [C10:0 ACCA, N-decanoyl 1-amino-cyclopropyl carboxylic acid]",tasting result,[3]; [12],More umami lingering body
same,tasting result,[3]; 0.5 PPM in chicken bouillon base,"Nice strong salty, Umami lingering body, better chicken profile"
"CCCCC/C=C\C/C=C\CCCCCCCC(=O)NCC(=O)O [C18:2-gly, N-linoleoyl-glycine]",tasting result,[8],"very juicy, salivating, authentic, long lasting and sweet aftertaste"
"CCCCCCCCCCCCCCCC(=O)NC(CCSC)C(=O)O (centres unmarked) [C16:0-met, N-palmitoyl-Met]",tasting result,[8],"slightly metallic, fresh"
same,tasting result,[1]; 1 ppm,"salty, full, nice salivating, lingering"
same,tasting result,[2]; 1 ppm,"fatty, full body, juicy, metallic"
CCCCCCCCCCCCCCCC(=O)NCC(=O)O [C16:0-gly],tasting result,[8],sweet after taste juicy
CCCCCCCC/C=C\CCCCCCCC(=O)NCCC(=O)O [C18:1-beta ala],tasting result,[1]; 2 ppm,more salty salivating umami
same,tasting result,[2]; 2 ppm,"more juicy, longlasting"
"CCCCC/C=C\C/C=C\CCCCCCCC(=O)N[C@H](C(=O)O)C(C)C [C18:2-val, N-linoleoyl-L-valine]",tasting result,[9],"more body and mouthfeel, more umami"
same,tasting result,[1]; 1 ppm,"more umami, salivating, salty"
same,tasting result,[2]; 1 ppm,"ripe, very juicy nice, full body, long lasting"
"CCCCCCCCCCCCCCCC(=O)N[C@@H](CC(C)C)C(=O)O [C16:0-leu, N-palmitoyl-L-leucine]",tasting result,[2]; 2 ppm,"very fruity, ripe mango taste, strawberry note"
"CCCCC/C=C\C/C=C\CCCCCCCC(=O)N[C@@H](C)C(=O)O [C18:2-ala, N-linoleoyl-L-alanine]",tasting result,[4],"enhanced sulfur note, powdery, soft peach skin like, authentic peach, slight raspberry note"
same,tasting result,[10]; 0.5 ppm,"creamy, fruity, juicy, green, long lasting, strawberry"
same,tasting result,[2]; 1 ppm,"fatty, juicy, apple skin taste"
CCCCCCCCCCCCCCCCCC(=O)NCCCC(=O)O [C18:0-gaba],tasting result,[10]; 0.5 ppm,"mild creamy, fruity, juicy and long lasting"
same,tasting result,[11],"juicy full, jammy"
"CCCCCC/C=C\CCCCCCCC(=O)NC(CCC(=O)O)C(=O)O (centres unmarked) [C16:1-glu, N-palmitenoyl-Glu]",tasting result,[10]; 0.5 ppm,"full, fatty, creamy"
same,tasting result,[6],"full, fatty, creamy, sweet vanilla"
same,tasting result,[2]; 1 ppm,"full, heavy, jammy, long lasting"
CCCCCCCCCCCCCCCC(=O)NCCC(=O)O [C16:0-beta ala],tasting result,[1]; 2 ppm,more salty salivating umami
same,tasting result,[2]; 2 ppm,more juicy
"CCCCCCCC/C=C\CCCCCCCC(=O)N[C@@H](CC(C)C)C(=O)O [C18:1-leu, N-oleoyl-L-leucine]",tasting result,[2]; 2 ppm,"very long lasting, ripe, fruity, juicy"
CCCCCCCC/C=C\CCCCCCCC(=O)NC(CCC(N)=O)C(=O)O (centres unmarked) [C18:1-gln],tasting result,[10]; 0.5 ppm,"more juicy, creamy, fruity long lasting"
same,tasting result,[11],"Juicy, nice, fatty aftertaste"
CCCCCC/C=C\CCCCCCCC(=O)NCCCC(=O)O [C16:1-gaba],tasting result,[10]; 2 ppm,"juicy, fruity, fatty, long lasting, good mouthfeel"
same,tasting result,[2]; 2 ppm,"juicy, rich, full authentic"
"CCCCCCCC/C=C\CCCCCCCC(=O)N[C@H](C(=O)O)C(C)C [C18:1-val, N-oleoyl-L-valine]",tasting result,[4],"tropical, fatty, skin, juicy"
CCCCCCCC(=O)NC(CCSC)C(=O)O (centres unmarked) [C8:0-met],tasting result,[1]; 1 ppm,"more salty, no additional fullness"
same,tasting result,[2]; 1 ppm,"green fresh, no additional body"
"CCCCC/C=C\C/C=C\CCCCCCCC(=O)NC(CO)C(=O)O (centres unmarked) [C18:2-ser, N-linoleoyl-Ser]",tasting result,[8],"very fresh, authentic, slightly less sweet, more juicy"
same,tasting result,[1]; 1 ppm,"more umami, slightly more salty, sweet"
same,tasting result,[2]; 1 ppm,"apple note, less acidic, juicy"
"CCCCCC/C=C\CCCCCCCC(=O)NC(CC(C)C)C(=O)O [C16:1 leu, N-palmitenoyl-L-leucine]",tasting result,[9],Strong salty and rich
"CCCCC/C=C\C/C=C\CCCCCCCC(=O)NC(CCSC)C(=O)O (centres unmarked) [C18:2-met, N-linoleoyl-Met]",tasting result,[1]; 1 ppm,"salivating salty, umami"
same,tasting result,[2]; 1 ppm,fresh nice juicy
"CCCCCCCCCCCCCCCC(=O)N[C@H](C(=O)O)C(C)C [C16:0-val, N-palmitoyl-L-valine]",tasting result,[4],very juicy
"CCCCCCCCCCCCCCCCCC(=O)NC(CC(=O)O)C(=O)O (centres unmarked) [C18:0-asp, N-stearoyl-Asp]",tasting result,[1]; 1 ppm,"lot off fullness and body, less salty"
same,tasting result,[2]; 1 ppm,"fatty, fruity, long lasting"
"CCCCCCCCCCCCCCCCCC(=O)NC(CCC(=O)O)C(=O)O (centres unmarked) [C18:0-glu, N-stearoyl-Glu]",tasting result,[10]; 0.5 ppm,"fruity, juicy, long lasting"
same,tasting result,[6],"full, fatty, whipped cream like"
same,tasting result,[2]; 1 ppm,"fatty, full, sweet juicy"
CCCCCCCC/C=C\CCCCCCCC(=O)NC(CC(=O)O)C(=O)O (centres unmarked) [C18:1-asp],tasting result,[1]; 1 ppm,not special
same,tasting result,[2]; 1 ppm,juicy fruit like
"CCCCCCCCCCCCCCCCCC(=O)NC(CCC(N)=O)C(=O)O (centres unmarked) [C18:0-gln, N-stearoyl-Gln]",tasting result,[11],"Sweet full juicy, nice, slight enhanced sulphury"
"CC(C)=CCC/C(C)=C/C(=O)NC1(C(=O)O)CC1 [Geranoyl ACCA, N-geranoyl 1-amino-cyclopropyl carboxylic acid]",tasting result,[3]; [12],Saltier Umami lingering Mouthfeel

# — patent publication US11091429B2, “Organic compounds” (Givaudan SA, priority 2012, dated 2021)
